Results published in patent US20220193013A1, “Pharmaceutical Composition for Treatment or Prevention of Multiple Inflammatory Disorders” (priority 2020, published 2022).

System: mouse peritoneum macrophages
Assay: LPS-stimulated mouse peritoneal macrophages, cytokine analysis
Type: cell-based
Settings: for GM-CSF, Significance @ 12 hour LPS incubation / IFNγ, Significance @ 12 hour LPS incubation / IL-1α, Significance @ 12 hour LPS incubation / IL-1β, Significance @ 12 hour LPS incubation / IL-2, Significance @ 12 hour LPS incubation / IL-4, Significance @ 12 hour LPS incubation / IL-6, Significance @ 12 hour LPS incubation / IL-7, Significance @ 12 hour LPS incubation / IL-10, Significance @ 12 hour LPS incubation / IL-12 (p70), Significance @ 12 hour LPS incubation / IL-13, Significance @ 12 hour LPS incubation / IL-17A, Significance @ 12 hour LPS incubation / KC/CXCL1, Significance @ 12 hour LPS incubation / LIX, Significance @ 12 hour LPS incubation / MCP-1, Significance @ 12 hour LPS incubation / MIP-2, Significance @ 12 hour LPS incubation / TNF-α, Significance @ 12 hour LPS incubation: P value
Experimental: This example provides an […] study to determine the effect of DA on mouse peritoneum macrophages. Peritoneal exudates were obtained from Balb/c female mice by lavage 4 days after an intraperitoneal injection of 4 ml sterile 4% thioglycollate broth. After washing with RPMI 1640 medium, the cell suspensions were centrifuged at 800 g at 4° C. for 5 min. The red blood cells were eliminated by ACK buffer and the cells were washed and resuspended in RPMI 1640 supplemented with 10% inactivated FBS, 10 mM HEPES, 2 mM glutamine, and 100 U/ml penicillin-[…] streptomycin. The peritoneal macrophages were plated in 24 well tissue culture plate (2×10^5 cells/mL/well) at 37° C. in a 5% CO2 humidified atmosphere. Macrophages were precultured in serum-free RPMI 1640 medium for 24 h to reduce mitogenic effects. Macrophages were pretreated with various concentrations of DA for 1 h prior to LPS treatment and stimulated with LPS (100 ng/mL) for 24 h. Treatment groups were: Table 4 At 12 and 24 h time points of stimulation, ˜200 ul of supernatant were removed and stored (−80° C.) for cytokine analysis ([…]). Cytokines analyzed were—GM-CSF, IFNγ, IL-1a, IL-1β, IL-2, IL-4, IL-5, IL-6, IL-7, IL-10, IL-12 (p70), IL-13, IL-17A, KC/CXCL1, LIX, MCP-1, MIP-2, TNF-α,

## CC(=O)[O-].CC[N+](CC)(CC(=O)Nc1c(C)cccc1C)Cc1ccccc1 [DA, denatonium acetate]
DA 1 μM
  GM-CSF, Significance @ 24 hour LPS incubation: No sig
  IFNγ, Significance @ 24 hour LPS incubation: No sig
  IL-1α, Significance @ 24 hour LPS incubation: No sig
  IL-1β, Significance @ 24 hour LPS incubation: No sig
  IL-2, Significance @ 24 hour LPS incubation: No sig
  IL-4, Significance @ 24 hour LPS incubation: No sig
  IL-6, Significance @ 24 hour LPS incubation: No sig
  IL-7, Significance @ 24 hour LPS incubation: No sig
  IL-10, Significance @ 24 hour LPS incubation: No sig
  IL-12 (p70), Significance @ 24 hour LPS incubation: No sig
  IL-13, Significance @ 24 hour LPS incubation: No sig
  IL-17A, Significance @ 24 hour LPS incubation: No sig
  KC/CXCL1, Significance @ 24 hour LPS incubation: No sig
  LIX, Significance @ 24 hour LPS incubation: No sig
  MCP-1, Significance @ 24 hour LPS incubation: No sig
  MIP-2, Significance @ 24 hour LPS incubation: No sig
  TNF-α, Significance @ 24 hour LPS incubation: No sig
  GM-CSF, Significance @ 12 hour LPS incubation: 0.029
  IFNγ, Significance @ 12 hour LPS incubation: 0.031
  IL-1α, Significance @ 12 hour LPS incubation: 0.021
  IL-1β, Significance @ 12 hour LPS incubation: 0.023
  IL-2, Significance @ 12 hour LPS incubation: 0.005
  IL-4, Significance @ 12 hour LPS incubation: 0.009
  IL-6, Significance @ 12 hour LPS incubation: 0.096
  IL-7, Significance @ 12 hour LPS incubation: 0.024
  IL-10, Significance @ 12 hour LPS incubation: 0.045
  IL-12 (p70), Significance @ 12 hour LPS incubation: 0.017
  IL-13, Significance @ 12 hour LPS incubation: 0.038
  IL-17A, Significance @ 12 hour LPS incubation: 0.044
  KC/CXCL1, Significance @ 12 hour LPS incubation: No sig
  LIX, Significance @ 12 hour LPS incubation: No sig
  MCP-1, Significance @ 12 hour LPS incubation: No sig
  MIP-2, Significance @ 12 hour LPS incubation: 0.081
  TNF-α, Significance @ 12 hour LPS incubation: 0.059
DA 10 μM
  GM-CSF, Significance @ 24 hour LPS incubation: no sig
  IFNγ, Significance @ 24 hour LPS incubation: no sig
  IL-1α, Significance @ 24 hour LPS incubation: no sig
  IL-1β, Significance @ 24 hour LPS incubation: no sig
  IL-2, Significance @ 24 hour LPS incubation: no sig
  IL-4, Significance @ 24 hour LPS incubation: no sig
  IL-6, Significance @ 24 hour LPS incubation: no sig
  IL-7, Significance @ 24 hour LPS incubation: no sig
  IL-10, Significance @ 24 hour LPS incubation: no sig
  IL-12 (p70), Significance @ 24 hour LPS incubation: no sig
  IL-13, Significance @ 24 hour LPS incubation: no sig
  IL-17A, Significance @ 24 hour LPS incubation: no sig
  KC/CXCL1, Significance @ 24 hour LPS incubation: no sig
  LIX, Significance @ 24 hour LPS incubation: no sig
  MCP-1, Significance @ 24 hour LPS incubation: no sig
  MIP-2, Significance @ 24 hour LPS incubation: no sig
  TNF-α, Significance @ 24 hour LPS incubation: no sig
  GM-CSF, Significance @ 12 hour LPS incubation: no sig
  IFNγ, Significance @ 12 hour LPS incubation: 0.037
  IL-1α, Significance @ 12 hour LPS incubation: 0.036
  IL-1β, Significance @ 12 hour LPS incubation: 0.023
  IL-2, Significance @ 12 hour LPS incubation: 0.004
  IL-4, Significance @ 12 hour LPS incubation: 0.009
  IL-6, Significance @ 12 hour LPS incubation: 0.029
  IL-7, Significance @ 12 hour LPS incubation: 0.010
  IL-10, Significance @ 12 hour LPS incubation: 0.026
  IL-12 (p70), Significance @ 12 hour LPS incubation: 0.007
  IL-13, Significance @ 12 hour LPS incubation: 0.019
  IL-17A, Significance @ 12 hour LPS incubation: 0.024
  KC/CXCL1, Significance @ 12 hour LPS incubation: no sig
  LIX, Significance @ 12 hour LPS incubation: no sig
  MCP-1, Significance @ 12 hour LPS incubation: no sig
  MIP-2, Significance @ 12 hour LPS incubation: 0.021
  TNF-α, Significance @ 12 hour LPS incubation: 0.024
DA 100 μM
  GM-CSF, Significance @ 24 hour LPS incubation: no sig
  IFNγ, Significance @ 24 hour LPS incubation: no sig
  IL-1α, Significance @ 24 hour LPS incubation: no sig
  IL-1β, Significance @ 24 hour LPS incubation: no sig
  IL-2, Significance @ 24 hour LPS incubation: no sig
  IL-4, Significance @ 24 hour LPS incubation: no sig
  IL-6, Significance @ 24 hour LPS incubation: no sig
  IL-7, Significance @ 24 hour LPS incubation: no sig
  IL-10, Significance @ 24 hour LPS incubation: no sig
  IL-12 (p70), Significance @ 24 hour LPS incubation: no sig
  IL-13, Significance @ 24 hour LPS incubation: no sig
  IL-17A, Significance @ 24 hour LPS incubation: no sig
  KC/CXCL1, Significance @ 24 hour LPS incubation: no sig
  LIX, Significance @ 24 hour LPS incubation: no sig
  MCP-1, Significance @ 24 hour LPS incubation: no sig
  MIP-2, Significance @ 24 hour LPS incubation: no sig
  TNF-α, Significance @ 24 hour LPS incubation: no sig
  GM-CSF, Significance @ 12 hour LPS incubation: no sig
  IL-10, Significance @ 12 hour LPS incubation: 0.015
  IL-12 (p70), Significance @ 12 hour LPS incubation: 0.008
  IL-13, Significance @ 12 hour LPS incubation: 0.021
  IL-17A, Significance @ 12 hour LPS incubation: 0.042
  KC/CXCL1, Significance @ 12 hour LPS incubation: 0.022
  LIX, Significance @ 12 hour LPS incubation: no sig
  MCP-1, Significance @ 12 hour LPS incubation: no sig
  MIP-2, Significance @ 12 hour LPS incubation: 0.033
  TNF-α, Significance @ 12 hour LPS incubation: 0.033
